# Experimental data taken from patent US8222244B2, “Staurosporine derivatives as inhibitors of FLT3 receptor tyrosine kinase activity” (Novartis AG, priority 2001, dated 2012).
# Target: T1, human Flt-3 (Homo sapiens, UniProt P36888)
# T1 construct: expresses the amino acid region amino acids 563-993 of the intra-cytoplasmic kinase domains of human Flt-3; made in house; host or cells: Sf9 insect cells (baculovirus, pFbacG01 donor vector)
# T1 sequence (P36888 563-993): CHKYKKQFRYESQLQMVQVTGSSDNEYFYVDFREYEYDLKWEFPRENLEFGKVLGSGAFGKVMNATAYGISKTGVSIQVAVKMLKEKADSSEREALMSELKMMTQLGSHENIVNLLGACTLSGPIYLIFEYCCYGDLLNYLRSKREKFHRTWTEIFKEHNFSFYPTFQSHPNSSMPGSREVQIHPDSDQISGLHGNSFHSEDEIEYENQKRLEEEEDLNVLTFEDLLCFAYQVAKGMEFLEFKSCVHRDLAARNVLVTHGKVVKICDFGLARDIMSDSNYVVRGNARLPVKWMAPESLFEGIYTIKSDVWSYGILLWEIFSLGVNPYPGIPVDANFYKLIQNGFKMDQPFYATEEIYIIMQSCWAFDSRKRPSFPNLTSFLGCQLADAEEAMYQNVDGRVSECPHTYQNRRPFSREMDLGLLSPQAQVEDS
# Assay: Tyrosine protein kinase assay with purified GST-Flt-3 (33P incorporation)
# Type: biochemical
# Conditions: at a 1.0 micromolar concentration
# Protocol: ATP into appropriate substrates.
# The coding sequences for the cytoplasmic domain of Flt-3 was amplified by PCR from human c-DNA libraries (Clontech). The amplified DNA fragments and the pFbacG01 vector were made compatible for ligation by digestion with BamH1 and Hind III. […] The production of the viruses, the expression of proteins in Sf9 cells and the purification of the GST-fused proteins were performed as following:
# (Generation of Bac- to Bac GST-fusion vectors); pFbacG01, pFbacGST2T and pFbacGSTx3 Bac-to-Bac™ donor vectors were generated from pAcG1, pAcG2T and pAcG3X respectively, which facilitate the expression of GST-fusion proteins with the possibility of cleavage with thrombin (pFbacGT2) or factor Xa (pFbacGSTx3) while pFbacG01 expresses no proteolytic cleavage site. These were generated in house by isolation of the DNA fragment containing the gene for GST with the C-terminal protease and restriction sites by restriction enzyme digestion of the relevant PharMingen baculovirus donor vector with EcoRV and EcoRI. This EcoRV/EcoRI fragment was ligated into the pFastBac1 vector which had been restriction digested with BamHI, blunt-ended by Klenow reaction and subsequently digested with EcoRI to generate a blunt-ended/EcoRI vector. (Production of virus); Transfer vectors containing the kinase domains were transfected into the DH10Bac cell line (GIBCO) and plated on selective agar plates. Colonies without insertion of the fusion sequence into the viral genome (carried by the bacteria) are blue. Single white colonies were picked and viral DNA (bacmid) isolated from the bacteria by standard plasmid purification procedures. Sf9 cells or Sf21 cells were then transfected in 25 cm^2 flasks with the viral DNA using Cellfectin reagent. (Determination of small scale protein expression in Sf9 cells); Virus containing media was collected from the transfected cell culture and used for infection to increase its titer. Virus containing media obtained after two rounds of infection was used for large-scale protein expression. For large-scale protein expression 100 cm^2 round tissue culture plates were seeded with 5×10^7 cells/plate and infected with 1 mL of virus-containing media (approx. 5 MOIs). After 3 days the cells were scraped off the plate and centrifuged at 500 rpm for 5 min. Cell pellets from 10-20, 100 cm^2 plates, were resuspended in 50 mL of ice-cold lysis buffer (25 mMTris-HCl, pH7.5, 2 mMEDTA, 1% NP-40, 1 mM DTT, 1 mMP MSF). The cells were stirred on ice for 15 min and then centrifuged at 5000 rpms for 20 min.
# ATP 0.1 μCi). […] ATP into appropriate substrates. […] Subsequently, 40 μL of the reaction mixture were transferred onto Immobilon-PVDF membrane (Millipore, Bedford, Mass., USA) previously soaked for 5 min with methanol, rinsed with water, then soaked for 5 min with 0.5% H3PO4 and mounted on vacuum manifold with disconnected vacuum source. After spotting all samples, vacuum was connected and each well rinsed with 200 μL 0.5% H3PO4. Membranes were removed and washed 4× on a shaker with 1.0% H3PO4, once with ethanol. Membranes were counted after drying at ambient temperature, mounting in Packard TopCount 96-well frame, and addition of 10 μL/well of Microscint™ (Packard). […] One unit of protein kinase activity is defined as 1 nmole of ^33P ATP transferred from [γ^33P] ATP to the substrate protein per minute per mg of protein at 37° C.
row,Compound,Flt3 Inhibition (percent inhibition of Flt3 kinase activity)
1,"COC1C(N(C)C(=O)C(C)OC2CCOCC2)CC2OC1(C)n1c3ccccc3c3c4c(c5c6ccccc6n2c5c31)C(=O)NC4 (stereo not drawn) [160251-50-3, [9S-[9a,10b,11b(S*),13a]]-N-(2,3,10,11,12,13-Hexahydro-10-methoxy-9-methyl-1-oxo-9,13-epoxy-1H,9H-diindolo[1,2,3-gh:3′,2′,1′-lm]pyrrolo[3,4-j][1,7]benzodiazonin-11-yl)-N-methyl-2-[(tetrahydro-2H-pyran-4-yl)oxy]-propanamide]",89%
2,"CO[C@@H]1[C@H](N(C)C(=O)C(C)(C)OC2CCOCC2)C[C@H]2O[C@]1(C)n1c3ccccc3c3c4c(c5c6ccccc6n2c5c31)C(=O)NC4 [160251-55-8, [9S-(9a,10b,11b,13a)]-N-(2,3,10,11,12,13-Hexahydro-10-methoxy-9-methyl-1-oxo-9,13-epoxy-1H,9H-diindolo[1,2,3-gh:3′,2′,1′-lm]pyrrolo[3,4-j][1,7]benzodiazonin-11-yl)-N,2-dimethyl-2-[(tetrahydro-2H-pyran-4-yl)oxy]-propanamide]",85%
3,"COC1C(N(C)C(=O)C(C)OC2CCOCC2)CC2OC1(C)n1c3ccccc3c3c4c(c5c6ccccc6n2c5c31)C(=O)NC4 (stereo not drawn) [160335-31-9, [9S-[9a,10b,11b(R*),13a]]-N-(2,3,10,11,12,13-Hexahydro-10-methoxy-9-methyl-1-oxo-9,13-epoxy-1H,9H-diindolo[1,2,3-gh:3′,2′,1′-lm]pyrrolo[3,4-j][1,7]benzodiazonin-11-yl)-N-methyl-2-[(tetrahydro-2H-pyran-4-yl)oxy]-propanamide]",90%
4,"COC1C(N(C)C(=O)c2ccc(O)cc2)CC2OC1(C)n1c3ccccc3c3c4c(c5c6ccccc6n2c5c31)C(=O)NC4 [165815-73-6, N-[(9S,10R,11R,13R)-2,3,10,11,12,13-Hexahydro-10-methoxy-9-methyl-1-oxo-9,13-epoxy-1H,9H-diindolo[1,2,3-gh:3′,2′,1′-lm]pyrrolo[3,4-j][1,7]benzodiazonin-11-yl]-4-hydroxy-N-methyl-benzamide]",91%
5,"CNC1CC2OC(C)(C1O)n1c3ccccc3c3c4c(c5c6ccccc6n2c5c31)C(=O)NC4 [239785-03-6, (9R,10S,11S,13S)-2,3,10,11,12,13-Hexahydro-10-hydroxy-9-methyl-11-(methylamino)-,9,13-epoxy-1H,9H-diindolo[1,2,3-gh:3′,2′,1′-lm]pyrrolo[3,4-j][1,7]benzodiazonin-1-one]",100%
6,"(2,3,10,11,12,13-hexahydro-10-methoxy-9-methyl-1-oxo-9,13-epoxy-1H,9H-diindolo[1,2,3-gh:3′,2′,1′-lm]pyrrolo[3,4-j][1,7]benzodiazonin-11-yl)methyl-carbamic acid, phenylmethyl ester [159404-67-8]",64%
7,"(9a,10b,11b,13a)-11-[(N-Acetyl-1-deoxymuramoyl)methylamino]-2,3,10,11,12,13-hexahydro-10-methoxy-9-methyl-9,13-epoxy-1H,9H-diindolo[1,2,3-gh:3′,2′,1′-lm]pyrrolo[3,4-j][1,7]benzodiazonin-1-one [149622-63-9]",98%
8,"(9a,10b,11b,13a)-11-[(N-Acetyl-4,6-di-O-acetyl-a-muramoyl)methylamino]-2,3,10,11,12,13-hexahydro-10-methoxy-9-methyl-9,13-epoxy-1H,9H-diindolo[1,2,3-gh:3′,2′,1′-lm]pyrrolo[3,4-j][1,7]benzodiazonin-1-one [149622-65-1]",74%
9,"(9a,10b,11b,13a)-11-[(N-Acetyl-6-amino-1,6-dideoxymuramoyl)methylamino]-2,3,10,11,12,13-hexahydro-10-methoxy-9-methyl-9,13-epoxy-1H,9H-diindolo[1,2,3-gh:3′,2′,1′-lm]pyrrolo[3,4-j][1,7]benzodiazonin-1-one, monomethanesulfonate [150654-80-1]",97%

# The next lines start with the values.
row,Flt3 Inhibition (percent inhibition of Flt3 kinase activity),Compound
1,89%,"COC1C(N(C)C(=O)c2cccnc2)CC2OC1(C)n1c3ccccc3c3c4c(c5c6ccccc6n2c5c31)C(=O)NC4 (stereo not drawn) [155848-16-1, [9S-(9a,10b,11b,13a)]-N-(2,3,10,11,12,13-Hexahydro-10-methoxy-9-methyl-1-oxo-9,13-epoxy-1H,9H-diindolo[1,2,3-gh:3′,2′,1′-lm]pyrrolo[3,4-g][1,7]benzodiazonin-11-yl)-N-methyl-3-pyridinecarboxamide]"
2,85%,"COC1C(N(C)C(=O)c2cnccn2)CC2OC1(C)n1c3ccccc3c3c4c(c5c6ccccc6n2c5c31)C(=O)NC4 (stereo not drawn) [155848-17-2, [9S-(9a,10b,11b,13a)]-N-(2,3,10,11,12,13-Hexahydro-10-methoxy-9-methyl-1-oxo-9,13-epoxy-1H,9H-diindolo[1,2,3-gh:3′,2′,1′-lm]pyrrolo[3,4-g][1,7]benzodiazonin-11-yl)-N-methyl-pyrazinecarboxamide]"
3,88%,"COC1C(=O)CC2OC1(C)n1c3ccccc3c3c4c(c5c6ccccc6n2c5c31)C(=O)NC4 [178276-05-6, (9S,10S,13R)-2,3,9,10,12,13-Hexahydro-10-methoxy-9-methyl-9,13-epoxy-1H,11H-diindolo[1,2,3-gh:3′,2′,1′-lm]pyrrolo[3,4-j][1,7]benzodiazonine-1,11-dione]"
4,41%,"CO[C@@H]1[C@H](N(C)C(=O)c2ccccc2)C[C@H]2O[C@]1(C)n1c3ccccc3c3c4c(c5c6ccccc6n2c5c31)C(=O)NC4O (stereo partly shown) [179237-49-1, N-(2,3,10,11,12,13-Hexahydro-3-hydroxy-10-methoxy-9-methyl-1-oxo-9,13-epoxy-1H,9H-diindolo[1,2,3-gh:3′,2′,1′-lm]pyrrolo[3,4-j][1,7]benzodiazonin-11-yl)-N-methyl-benzamide]"
5,77%,"COC1C(=NOC(C)=O)CC2OC1(C)n1c3ccccc3c3c4c(c5c6ccccc6n2c5c31)C(=O)NC4 (stereo not drawn) [187457-78-9, [9S-(9a,10b,13a)]-2,3,9,10,12,13-Hexahydro-10-methoxy-9-methyl-9,13-epoxy-1H,11H-diindolo[1,2,3-gh:3′,2′,1′-lm]pyrrolo[3,4-j][1,7]benzodiazonine-1,11-dione, 11-(O-acetyloxime)]"
6,93%,"(9a,10b,11b,13a)-11-[(N-Acetyl-6-O-acetyl-1-deoxymuramoyl)methylamino]-2,3,10,11,12,13-hexahydro-10-methoxy-9-methyl-, 11-[(N-acetyl-6-O-acetyl-1-deoxymuramoyl)methylamino]-2,3,10,11,12,13-hexahydro-10-methoxy-9-methyl-9,13-epoxy-1H,9H-diindolo[1,2,3-gh:3′,2′,1′-lm]pyrrolo[3,4-j][1,7]benzodiazonin-1-one [149622-68-4]"
7,100%,"(9a,10b,11b,13a)-11-[(N-Acetyl-6-amino-6-deoxy-a-isomuramoyl)methylamino]-2,3,10,11,12,13-hexahydro-10-methoxy-9-methyl-9,13-epoxy-1H,9H-diindolo[1,2,3-gh:3′,2′,1′-lm]pyrrolo[3,4-j][1,7]benzodiazonin-1-one [149622-56-0]"
